Measurements taken from patent US11319322B2, “Substituted aryl ether compound, preparation method thereof, pharmaceutical composition and use thereof” (Xiamen University, priority 2017, dated 2022).

What was measured:
Format in all cases: cell-based
CCDC6-RET-BaF3 = target: T1, CCDC6-RET-BaF3 (Homo sapiens, UniProt P07949); test: Growth inhibition of CCDC6-RET-BaF3 cells stably transfected with kinase (MTS); settings: 48 h, read-out: CCDC6-RET (IC50/nM)
T1 construct: fused on or other part: Q16204 (Coiled-coil domain-containing protein 6)
T1 sequence (P07949 whole entry, change not shown, the tested form may be a part): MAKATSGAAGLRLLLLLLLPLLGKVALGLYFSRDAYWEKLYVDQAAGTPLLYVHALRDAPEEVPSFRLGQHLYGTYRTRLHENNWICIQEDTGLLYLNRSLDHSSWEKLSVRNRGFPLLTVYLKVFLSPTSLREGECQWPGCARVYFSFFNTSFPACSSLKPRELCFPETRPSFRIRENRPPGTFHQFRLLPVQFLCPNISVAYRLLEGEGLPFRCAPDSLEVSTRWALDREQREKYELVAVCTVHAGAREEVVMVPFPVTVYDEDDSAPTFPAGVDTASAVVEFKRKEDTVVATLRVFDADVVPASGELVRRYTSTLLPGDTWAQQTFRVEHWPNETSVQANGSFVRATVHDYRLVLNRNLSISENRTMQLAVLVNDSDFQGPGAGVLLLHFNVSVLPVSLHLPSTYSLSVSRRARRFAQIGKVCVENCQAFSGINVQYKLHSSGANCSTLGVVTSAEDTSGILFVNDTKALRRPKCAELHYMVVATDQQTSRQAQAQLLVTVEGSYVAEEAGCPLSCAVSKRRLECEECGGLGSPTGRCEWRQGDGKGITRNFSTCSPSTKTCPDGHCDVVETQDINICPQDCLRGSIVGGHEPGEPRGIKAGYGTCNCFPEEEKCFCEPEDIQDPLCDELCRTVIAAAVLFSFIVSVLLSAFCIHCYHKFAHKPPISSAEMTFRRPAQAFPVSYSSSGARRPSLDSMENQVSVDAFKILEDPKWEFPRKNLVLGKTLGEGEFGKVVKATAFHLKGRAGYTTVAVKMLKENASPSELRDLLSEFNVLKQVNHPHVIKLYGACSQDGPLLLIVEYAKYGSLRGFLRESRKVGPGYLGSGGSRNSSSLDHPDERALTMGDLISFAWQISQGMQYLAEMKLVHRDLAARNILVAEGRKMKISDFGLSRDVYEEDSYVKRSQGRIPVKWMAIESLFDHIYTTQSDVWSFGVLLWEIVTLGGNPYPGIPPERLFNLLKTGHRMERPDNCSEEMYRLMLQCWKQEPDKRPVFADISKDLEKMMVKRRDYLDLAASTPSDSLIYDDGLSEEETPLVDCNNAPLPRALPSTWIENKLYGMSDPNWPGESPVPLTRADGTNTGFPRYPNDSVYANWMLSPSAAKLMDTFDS
How it was run: (§1)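 BaF3 cells stably expressing CCDC6-RET or KIF5B-RET, or parental BaF3, 2×10^4 cells/well, treated 48 h at 37 °C with 8-point 1:3 dilutions from 10 μM (0.1% DMSO). MTS/PES added 1–4 h, OD490 read; inhibition versus DMSO and blank gave IC50.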

KIF5B-RET-BaF3 = target: T2, KIF5B-RET-BaF3 (Homo sapiens, UniProt P07949); test: Growth inhibition of KIF5B-RET-BaF3 cells stably transfected with kinase (MTS); settings: 48 h, read-out: KIF5B-RET (IC50/nM)
T2 construct: fused on or other part: P33176 (Kinesin-1 heavy chain)
T2 sequence (P07949 whole entry, change not shown, the tested form may be a part): as above
How it was run: as §1

wild-type BaF3 = test: Growth inhibition of wild-type BaF3 cells, broad-spectrum toxicity (MTS); settings: Mus musculus, 48 h, read-out: WT Ba/F3 (IC50/nM)
How it was run: as §1

| SMILES | GI50 (CCDC6-RET-BaF3) [nM] | GI50 (KIF5B-RET-BaF3) [nM] | IC50 (wild-type BaF3) [nM] |
| --- | --- | --- | --- |
| Cc1ccc(C(=O)Nc2ccc(CN3CCN(C)CC3)c(C(F)(F)F)c2)cc1Oc1nc(-c2ccoc2)nc2cc[nH]c12 [III-m-8] | 1240 | 1710 | 4100 |
| Cc1ccc(C(=O)Nc2ccc(CN3CCN(C)CC3)c(C(F)(F)F)c2)cc1Oc1nc(-c2cccnc2)nc2ccn(C)c12 [III-m-9] | 1250 | 3050 | 1440 |
| Cc1ccc(C(=O)Nc2ccc(CN3CCN(C)CC3)c(C(F)(F)F)c2)cc1Oc1nc(-c2ccncc2)nc2ccn(C)c12 [III-m-10] | 544 | 1050 | 623 |
| Cc1ccc(-c2nc(Oc3cc(C(=O)Nc4ccc(CN5CCN(C)CC5)c(C(F)(F)F)c4)ccc3C)c3c(ccn3C)n2)cc1 [III-m-12] | 4020 | 4280 | 3580 |
| Cc1ccc(C(=O)Nc2ccc(CN3CCN(C)CC3)c(C(F)(F)F)c2)cc1Oc1nc(-c2cccc(Cl)c2)nc2ccn(C)c12 [III-m-13] | 3510 | 3000 | 3390 |
| Cc1ccc(C(=O)Nc2ccc(CN3CCN(C)CC3)c(C(F)(F)F)c2)cc1Oc1nc(-c2ccc(Cl)cc2)nc2ccn(C)c12 [III-m-14] | 2920 | 2720 | 3190 |
| Cc1ccc(C(=O)Nc2ccc(CN3CCN(C)CC3)c(C(F)(F)F)c2)cc1Oc1nc(-c2cccc(O)c2)nc2ccn(C)c12 [III-m-15] | 2960 | 3930 | 7210 |
| Cc1ccc(C(=O)Nc2ccc(CN3CCN(C)CC3)c(C(F)(F)F)c2)cc1Oc1nc(-c2ccc(O)cc2)nc2ccn(C)c12 [III-m-16] | 3670 | 4420 | 4360 |
| Cc1ccc(C(=O)Nc2ccc(CN3CCN(C)CC3)c(C(F)(F)F)c2)cc1Oc1nc(-c2ccsc2)nc2ccn(C)c12 [III-m-18] | 2960 | 2680 | 3510 |
| CNc1nc(Oc2cc(C(=O)Nc3ccc(CN4CCN(C)CC4)c(C(F)(F)F)c3)ccc2C)c2c(ccn2C)n1 [III-m-19] | 2510 | 3270 | 4020 |
| Cc1ccc(C(=O)Nc2ccc(CN3CCN(C)CC3)c(C(F)(F)F)c2)cc1Oc1nc(N2CCOCC2)nc2ccn(C)c12 [III-m-20] | 2960 | 2500 | 3550 |
| Cc1ccc(C(=O)Nc2ccc(CN3CCN(C)CC3)c(C(F)(F)F)c2)cc1Oc1nc(N2CC(C)OC(C)C2)nc2ccn(C)c12 (stereo not drawn) [III-m-21] | 3490 | 3750 | 2920 |
| Cc1ccc(C(=O)Nc2ccc(CN3CCN(C)CC3)c(C(F)(F)F)c2)cc1Oc1ncnc2ccn(C)c12 [III-m-22] | 597 | 854 | > 10000 |
| Cc1ccc(C(=O)Nc2ccc(CN3CCN(C)CC3)c(C(F)(F)F)c2)cc1Oc1nc(N2CCN(C)CC2)nc2ccn(C)c12 [III-m-23] | 515 | 477 | 464 |
| Cc1ccc(C(=O)Nc2ccc(CN3CCN(C)CC3)c(C(F)(F)F)c2)cc1Oc1nc(N(C)C)nc2ccn(C)c12 [III-m-24] | 3120 | 3230 | 3080 |
| Cc1ccc(C(=O)Nc2ccc(CN3CCN(C)CC3)c(C(F)(F)F)c2)cc1Oc1nc(-c2ccc(O)cc2)nc2cc[nH]c12 [III-m-26] | 1320 | 2900 | 4100 |
| Cc1ccc(C(=O)Nc2ccc(CN3CCN(C)CC3)c(C(F)(F)F)c2)cc1Oc1nc(-c2ccsc2)nc2cc[nH]c12 [III-m-27] | 1400 | 1500 | 34500 |
| CN1CCN(Cc2ccc(NC(=O)c3cc(Oc4nc(-c5cccnc5)nc5cc[nH]c45)ccc3Cl)cc2C(F)(F)F)CC1 [III-o-1] | 2150 | 1550 | 1630 |
| CN1CCN(Cc2ccc(NC(=O)c3cc(Oc4nc(-c5ccncc5)nc5cc[nH]c45)ccc3Cl)cc2C(F)(F)F)CC1 [III-o-2] | 17.4 | 13.4 | 1290 |
| CN1CCN(Cc2ccc(NC(=O)c3cc(Oc4nc(-c5cccnc5)nc5ccn(C)c45)ccc3Cl)cc2C(F)(F)F)CC1 [III-o-3] | 1280 | 1330 | 1300 |

| SMILES | GI50 (CCDC6-RET-BaF3) [nM] | GI50 (KIF5B-RET-BaF3) [nM] | IC50 (wild-type BaF3) [nM] |
| --- | --- | --- | --- |
| CN1CCN(Cc2cc(NC(=O)c3cccc(Oc4nc(-c5cccnc5)nc5cc[nH]c45)c3)cc(C(F)(F)F)c2)CC1 [III-p-1] | 4400 | 2920 | 3550 |
| CN1CCN(Cc2cc(NC(=O)c3cccc(Oc4nc(-c5ccncc5)nc5cc[nH]c45)c3)cc(C(F)(F)F)c2)CC1 [III-p-2] | 449 | 672 | > 10000 |
| CN1CCN(Cc2cc(NC(=O)c3cccc(Oc4nc(-c5ccncc5)nc5ccn(C)c45)c3)cc(C(F)(F)F)c2)CC1 [III-p-4] | 3230 | 3650 | > 10000 |
| Cc1ccc(C(=O)Nc2cc(CN3CCN(C)CC3)cc(C(F)(F)F)c2)cc1Oc1nc(-c2cccnc2)nc2cc[nH]c12 [III-q-1] | 1330 | 1540 | 1430 |
| Cc1ccc(C(=O)Nc2cc(CN3CCN(C)CC3)cc(C(F)(F)F)c2)cc1Oc1nc(-c2ccncc2)nc2cc[nH]c12 [III-q-2] | 351 | 594 | 843 |
| Cc1ccc(C(=O)Nc2cc(CN3CCN(C)CC3)cc(C(F)(F)F)c2)cc1Oc1nc(-c2cccnc2)nc2ccn(C)c12 [III-q-3] | 1400 | 1400 | 1380 |
| Cc1ccc(C(=O)Nc2cc(CN3CCN(C)CC3)cc(C(F)(F)F)c2)cc1Oc1nc(-c2ccncc2)nc2ccn(C)c12 [III-q-4] | 901 | 1270 | 1330 |
| Cc1ccc(Oc2nc(-c3ccncc3)nc3cc[nH]c23)cc1C(=O)Nc1cc(CN2CCN(C)CC2)cc(C(F)(F)F)c1 [III-r-2] | 386 | 535 | 4130 |
| Cc1ccc(Oc2nc(-c3cccnc3)nc3ccn(C)c23)cc1C(=O)Nc1cc(CN2CCN(C)CC2)cc(C(F)(F)F)c1 [III-r-3] | 3770 | 2720 | 3650 |
| Cc1ccc(Oc2nc(-c3ccncc3)nc3ccn(C)c23)cc1C(=O)Nc1cc(CN2CCN(C)CC2)cc(C(F)(F)F)c1 [III-r-4] | 187 | 325 | 1380 |
| CN1CCN(Cc2ccc(NC(=O)c3cc(Oc4nc(-c5ccncc5)nc5ccn(C)c45)ccc3-c3ccncc3)cc2C(F)(F)F)CC1 [III-v-1] | 431 | 835 | > 10000 |
| Cc1ccc(C(=O)Nc2cccc(C(F)(F)F)c2)cc1Oc1nc(-c2ccncc2)nc2nn(C)cc12 [IV-e-2] | 2910 | 8450 | 2220 |
| CN1CCN(Cc2ccc(NC(=O)c3cccc(Oc4cc(-c5cccnc5)nc5[nH]ccc45)c3)cc2C(F)(F)F)CC1 [V-I-1] | 1460 | 1460 | 2070 |
| CN1CCN(Cc2ccc(NC(=O)c3cccc(Oc4cc(-c5ccncc5)nc5[nH]ccc45)c3)cc2C(F)(F)F)CC1 [V-I-2] | 169 | 169 | 3400 |
| CN1CCN(Cc2ccc(NC(=O)c3cccc(Oc4cc(-c5cccnc5)nc5c4ccn5C)c3)cc2C(F)(F)F)CC1 [V-I-3] | 587 | 595 | 1240 |
| CN1CCN(Cc2ccc(NC(=O)c3cccc(Oc4cc(-c5ccncc5)nc5c4ccn5C)c3)cc2C(F)(F)F)CC1 [V-I-4] | 337 | 143 | 1420 |
| Cc1ccc(C(=O)Nc2ccc(CN3CCN(C)CC3)c(C(F)(F)F)c2)cc1Oc1cc(-c2cccnc2)nc2[nH]ccc12 [V-m-1] | 1020 | 473 | 1380 |
| Cc1ccc(C(=O)Nc2ccc(CN3CCN(C)CC3)c(C(F)(F)F)c2)cc1Oc1cc(-c2ccncc2)nc2[nH]ccc12 [V-m-2] | 1350 | 978 | 905 |
| Cc1ccc(C(=O)Nc2ccc(CN3CCN(C)CC3)c(C(F)(F)F)c2)cc1Oc1cc(-c2cccnc2)nc2c1ccn2C [V-m-3] | 1170 | 613 | 3370 |
